# Test results published in patent US7495028B2, “R-bambuterol, its preparation and therapeutic uses” (priority 2002, dated 2009).
# Assays:
# [1] = system: hyperlipidemia mice; assay: Lipid lowering effects in Tyloxapol-induced hyperlipidemia mice; format: in vivo
# Protocol: Test method: Male and […] mice, Kunming strain, 35 each, weight 18-22 grams, were used. Food and water were available ad libitum. The animals were randomized into 7 groups (n=10). Groups of animals were administered orafly, via a stomach tube, vehicle (distilled water, two groups), R-bambuterol hydrochloride (10 mg/kg and 5 mg/kg), racemic bambuterol hydrochloride (10 mg/kg and 5 mg/kg) and simvastatin (10 mg/kg) once a day for four days. With the exception of one vehicle—treated group (as control), Tyloxapol (400 mg/kg, Sigma Chemical Co.) was injected into the peritoneal cavity of the mice of all groups immediately after the last treatment on the fourth day in order to induce hyperlipidemia. All the animals were fasted overnight prior to the injection of Tyloxapol. Blood samples were collected by cardiac puncture 24 hours after the injection of Tyloxapol. The blood samples were processed to plasma, and concentration of triglycerides (TG), cholesterol (CHO), high density lipoprotein (HDL), low density lipoprotein (LDL) and very low density lipoprotein (VLDL) were measured with an autoblood analyzer (Olympic, Japan).
# [2] = system: rats; assay: Cardiovascular effects in anesthetized rats; format: in vivo; settings: 30 mg/kg intravenously
# Text: Test method: Rats (Sprague Dawley, 250-300 g) were randomized into two groups (n=6, equal sexes). After anesthesia, plastic tubing was introduced into a carotid artery of each animal and connected to pressure transducers to record mean artery pressure (MBP) and heart rate (HR). Another tube was introduced into the left ventricular chamber via the another carotid artery and connected to a pressure transducer. Left ventricular systolic pressure (LVSP) and the first order of differential of LVSP (dp/dt) as an index for inotropic effects were recorded. R-Bambuterol and racemic bambuterol hydrochloride were dissolved in saline and administrated intravenously at 30 mg/kg to each animal. The HR, MBP and Max dp/dt were measured before treatment (control) and after the treatments when the maximum response occurred, and 20 min after treatment as indication of recovery.
compound,measurement,setting,value
"CN(C)C(=O)Oc1cc(OC(=O)N(C)C)cc(C(O)CNC(C)(C)C)c1 (stereo not drawn) [RS-bambuterol, bambuterol]",CHO lipid level,[1]; Tyl + 10 mg,125.2 ± 19.8 mg/dL
same,HDL lipid level,[1]; Tyl + 10 mg,50 ± 17 mg/dL
same,LDL lipid level,[1]; Tyl + 10 mg,30 ± 6 mg/dL
same,VLDL lipid level,[1]; Tyl + 10 mg,44.2 ± 14.4 mg/dL
same,TG lipid level,"[1]; Tyl + 10 mg (10 mg/kg oral once a day for four days), plasma 24 hours after Tyloxapol",148 ± 45 mg/dL
same,"MBP 20 min after Δ, % of control",[2]; 20 min after treatment,8.3%
same,"MBP, 20 min after Δ",[2]; 20 min after treatment,1.1 ± 0.4 Kpa
same,"Maxdp/dt 20 min after Δ, % of control",[2]; 20 min after treatment,4.8%
same,"Maxdp/dt, 20 min after Δ",[2]; 20 min after treatment,13 ± 3.8 Kpa/sec
same,"HR 20 min after Δ, % of Control","[2]; 20 min after treatment, listed as Rac-Bambuterol",9.5%
same,"HR 20 min after Δ, % of Control","[2]; 20 min after treatment, listed as racemic bambuterol hydrochloride",9.5%
same,"HR Treatment Δ, % of Control",[2]; maximum response,20.6%
same,"HR, Treatment Δ",[2]; maximum response,85.8 ± 5 Beat/min
same,"MBP Treatment Δ, % of control",[2]; maximum response,31.6%
same,"MBP, Treatment Δ",[2]; maximum response,4.2 ± 0.5 Kpa
same,"Maxdp/dt, Treatment Δ",[2]; maximum response,65.4 ± 9 Kpa/sec
same,"Maxdp/dt Treatment Δ, % of control","[2]; maximum response, listed as Rac-Bambuterol",24.4%
same,"Maxdp/dt Treatment Δ, % of control","[2]; maximum response, listed as racemic bambuterol",24.4%
